# Measurements from US20230150970A1, “AMINOPYRIMIDINE DERIVATIVES AND THEIR USE AS ARYL HYDROCARBON RECEPTOR MODULATORS” (DONG-A ST CO., LTD., priority 2020, published 2023).
# pEC50, pIC50: −log10 of the molar value. Read-outs that look alike come from different tables or passages of the source.
# Assays:
# AhR [1] = target: T1, AhR (Homo sapiens, UniProt P35869); assay: In Vitro Assay 4: endogenous AhR activity assay (CYP1A1 and CYP1B1 mRNA, qRT-PCR, HepG2 cells)
# T1 sequence (P35869 11-848): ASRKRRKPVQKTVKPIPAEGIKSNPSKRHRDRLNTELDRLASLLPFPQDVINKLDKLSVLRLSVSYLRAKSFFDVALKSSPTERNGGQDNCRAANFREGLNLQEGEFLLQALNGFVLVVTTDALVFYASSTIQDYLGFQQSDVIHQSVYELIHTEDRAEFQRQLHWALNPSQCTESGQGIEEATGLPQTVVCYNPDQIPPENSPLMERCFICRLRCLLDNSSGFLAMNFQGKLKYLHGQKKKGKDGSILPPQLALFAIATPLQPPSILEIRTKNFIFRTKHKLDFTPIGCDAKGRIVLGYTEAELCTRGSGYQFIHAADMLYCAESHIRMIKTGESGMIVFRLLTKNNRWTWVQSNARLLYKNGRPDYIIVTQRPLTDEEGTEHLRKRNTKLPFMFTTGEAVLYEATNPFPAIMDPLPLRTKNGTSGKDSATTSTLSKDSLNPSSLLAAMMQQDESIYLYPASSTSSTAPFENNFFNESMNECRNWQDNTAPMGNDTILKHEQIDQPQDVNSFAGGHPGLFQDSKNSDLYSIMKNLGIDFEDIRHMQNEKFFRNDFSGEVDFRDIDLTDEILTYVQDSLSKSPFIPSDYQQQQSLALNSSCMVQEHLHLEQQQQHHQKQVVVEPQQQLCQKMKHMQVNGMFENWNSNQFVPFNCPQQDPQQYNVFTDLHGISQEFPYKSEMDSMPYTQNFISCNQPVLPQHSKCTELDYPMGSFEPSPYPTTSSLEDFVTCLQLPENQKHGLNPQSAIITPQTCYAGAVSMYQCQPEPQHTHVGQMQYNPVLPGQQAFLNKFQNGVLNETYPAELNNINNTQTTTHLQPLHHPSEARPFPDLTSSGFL
# AhR [2] = target: T1, AhR; assay: In Vitro Assay 1: XRE-luciferase reporter assay, antagonism in human cell line (HepG2); conditions: Assay 1: AhR-Luc Human Antagonism (IC50, nM), 6 hours
# From the text: In Vitro XRE-Luciferase Reporter Assay (In Vitro Assay 1, 2, 3) AhR activation leads the induction of target gene expression such as CYP1A1 and CYPIB1 by AhR binding to AhR-responsive DNA elements also known as xenobiotics responsive elements (XREs). The assay for measuring AhR activity herein is the luciferase assay using cell lines transfected with luciferase reporter plasmid containing XREs at the upstream of the reporter gene. Cells transfected with XRE-luciferase reporter (XRE-Luc), plasmid drive luciferase activity reflecting activation and inhibition of AhR in the cells. […] Kynurenine (an endogenous AhR agonist), was used to stimulate cells to test antagonistic properties of the compounds. The half-maximal inhibitory concentration (IC50), or half-maximal effective concentration (EC50), value was calculated using nonlinear regression (four parameters), with Prism8.0 software (GraphPad).
# In Vitro Assay 1: Antagonism in Human Cell Line
# HepG2 (human hepatoma cell line) cell line with a XRE-luciferase reporter either transiently or stably (Invivogen) were plated in complete medium and incubated at 37° C. in a CO2 incubator. After 24 hours, cells were treated with kynurenine (50* or 200 μM) alone (negative control) or with test compounds for 6 hours. Luciferase activity was measured with a commercial kit such as the Promega Luciferase kit or Invivogen Luciferase kit. Relative luciferase activity (Firefly/Nano-Luc) was used to calculate IC50 values. […] (IC50 values are grouped as A, B, C and D, whereby A: IC50<0.01 μM; B: 0.01<IC50<0.1 μM; C: 0.1<IC50<1.0 μM; D: IC50>1.0 μM)
# AhR [3] = target: T1, AhR; assay: In Vitro Assay 3: XRE-luciferase reporter assay, agonism in human cell line (HepG2); type: cell-based; design: endogenous in cells; host or cells: HepG2; conditions: HepG2, tryptophan free medium, 6 hours, no agonist, read-out: Assay 3: AhR-Luc Human Agonism (EC50)
# Protocol: In Vitro Assay 3: Agonism in Human Cell Line
# HepG2 (human hepatoma cell line) cells co-transfected with XRE-Luc and Nano-Luc plasmids were plated in tryptophan free medium containing 1% of dialyzed fetal bovine serum and incubated overnight at 37° C. in a CO2 incubator. After 24 hours, cells were treated for 6 hours with test compounds or not. […] As a positive control, cells were incubated with TCDD.
# AhR [4] = target: T2, AhR (Mus musculus, UniProt P30561); assay: In Vitro Assay 2: XRE-luciferase reporter assay, antagonism in mouse cell line (Hepa1c1c7); type: cell-based; conditions: unmarked values: AhR activating ligand kynurenic acid, 6 hours, read-out: Assay 2: AhR-Luc Mouse Antagonism (IC50)
# T2 sequence (P30561 1-848): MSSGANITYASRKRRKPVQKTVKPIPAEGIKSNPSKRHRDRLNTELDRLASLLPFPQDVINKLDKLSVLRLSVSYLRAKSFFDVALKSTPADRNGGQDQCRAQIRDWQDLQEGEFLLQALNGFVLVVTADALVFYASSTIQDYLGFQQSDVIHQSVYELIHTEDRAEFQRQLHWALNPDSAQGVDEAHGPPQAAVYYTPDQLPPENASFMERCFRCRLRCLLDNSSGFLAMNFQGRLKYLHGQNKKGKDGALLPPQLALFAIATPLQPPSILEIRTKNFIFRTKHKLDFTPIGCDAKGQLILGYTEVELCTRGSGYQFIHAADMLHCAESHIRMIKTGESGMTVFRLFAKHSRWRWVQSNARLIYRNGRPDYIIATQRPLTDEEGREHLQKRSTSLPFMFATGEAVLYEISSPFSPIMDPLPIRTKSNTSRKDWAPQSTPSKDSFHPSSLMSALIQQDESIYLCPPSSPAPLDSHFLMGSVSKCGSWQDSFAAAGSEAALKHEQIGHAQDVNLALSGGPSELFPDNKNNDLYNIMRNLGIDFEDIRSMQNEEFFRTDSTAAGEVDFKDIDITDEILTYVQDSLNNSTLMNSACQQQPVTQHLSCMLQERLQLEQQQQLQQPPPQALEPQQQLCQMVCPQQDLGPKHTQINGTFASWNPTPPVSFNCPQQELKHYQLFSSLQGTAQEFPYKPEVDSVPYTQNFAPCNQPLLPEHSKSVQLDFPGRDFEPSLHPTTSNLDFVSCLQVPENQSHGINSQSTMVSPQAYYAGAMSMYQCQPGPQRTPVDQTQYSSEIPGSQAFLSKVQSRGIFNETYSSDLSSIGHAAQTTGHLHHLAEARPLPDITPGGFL
# Protocol: In Vitro Assay 2: Antagonism in Mouse Cell Line
# Hepa1c1c7 (murine liver cancer cell line) cells co-transfected with XRE-Luc and Nano-Luc plasmids were plated in complete medium and incubated overnight at 37° C. in a CO2 incubator. Following incubation, cells were treated with AhR activating ligands such as kynurenic acid, kynurenine (#) with or without test compounds for 6 hours.
# [5] = HepG2, read-out: CYP1A1 (% Inhibition)
# [6] = HepG2, read-out: CYP1B1 (% Inhibition)
# [7] = values marked *: kynurenine 50 μM
# [8] = unmarked values: kynurenine 200 μM
pEC50 (AhR [3]; class in brackets of the cell),pEC50 (AhR [3]; number of the cell),IC50 (AhR [2]; [8]),pIC50 (AhR [4]),SMILES,inhibition at 0.123 µM (AhR [1]; [5]),inhibition at 0.123 µM (AhR [1]; [6]),IC50 (AhR [2]; [7])
< 5.00,< 4.52,< 10 nM,–,"OCC1CCN(c2cc(-c3ccc(N4CCOCC4)c(F)c3)nc(-c3cccnc3)n2)CC1 [Example 276, (1-(6-(3-fluoro-4-morpholinophenyl)-2-(pyridin-3-yl)pyrimidin-4-yl)piperidin-4-yl)methanol]",–,–,–
< 5.00,< 4.52,10 to 100 nM,–,"OCC1CCN(c2cc(-c3ccc(OC4CCCCO4)cc3)nc(-c3cccnc3)n2)CC1 (stereo not drawn) [Example 278, (1-(2-(pyridin-3-yl)-6-(4-((tetrahydro-2H-pyran-2-yl)oxy)phenyl)pyrimidin-4-yl)piperidin-4-yl)methanol]",–,–,–
–,–,< 10 nM,7.00 to 8.00,"OC[C@H]1CN(c2cc(-c3ccc(C(F)(F)F)cc3)nc(-c3cccnc3)n2)CCO1 [Example 280, (R)-(4-(2-(pyridin-3-yl)-6-(4-(trifluoromethyl)phenyl)pyrimidin-4-yl)morpholin-2-yl)methanol]",–,–,–
< 5.00,< 4.52,< 10 nM,–,"OCC1CCN(c2cc(-c3ccc(N4CCOCC4)nc3)nc(-c3cccnc3)n2)CC1 [Example 289, (1-(6-(6-morpholinopyridin-3-yl)-2-(pyridin-3-yl)pyrimidin-4-yl)piperidin-4-yl)methanol]",–,–,–
–,–,–,< 6.00,"Cn1cc(-c2nc(-c3ccc(C(F)(F)F)cc3)cc(N3CC[C@@H](C(=O)O)C3)n2)cn1 [Example 312, (R)-1-(2-(1-methyl-1H-pyrazol-4-yl)-6-(4-(trifluoromethyl)phenyl)pyrimidin-4-yl)pyrrolidine-3-carboxylic acid]",–,–,–
< 5.00,< 4.52,< 10 nM,–,"O[C@H]1CON(c2cc(-c3ccc(C(F)(F)F)cc3)nc(-c3cccnc3)n2)C1 [Example 314, (R)-2-(2-(pyridin-3-yl)-6-(4-(trifluoromethyl)phenyl)pyrimidin-4-yl)isoxazolidin-4-ol]",–,–,–
< 5.00,< 4.52,< 10 nM,–,"O=C(CCCO)N1CCN(c2cc(-c3ccc(Cl)cc3)nc(-c3cccnc3)n2)CC1 [Example 361, 1-(4-(6-(4-chlorophenyl)-2-(pyridin-3-yl)pyrimidin-4-yl)piperazin-1-yl)-4-hydroxybutan-1-one]",–,–,–

# The remaining lines, values behind:
SMILES,pEC50 (AhR [3]; class in brackets of the cell),pEC50 (AhR [3]; number of the cell),IC50 (AhR [2]; [8]),pIC50 (AhR [4]),inhibition at 0.123 µM (AhR [1]; [5]),inhibition at 0.123 µM (AhR [1]; [6]),IC50 (AhR [2]; [7])
"CC1CCN(c2cc(-c3ccc(Cl)cc3)nc(-c3cccnc3)n2)CC1 [Example 27, 4-(4-chlorophenyl)-6-(4-methylpiperidin-1-yl)-2-(pyridin-3-yl)pyrimidine]",–,–,–,–,68.4%,90.3%,< 10 nM
"OCC1CCN(c2cc(-c3ccc(Cl)cc3)nc(-c3cccnc3)n2)CC1 [Example 42, (1-(6-(4-chlorophenyl)-2-(pyridin-3-yl)pyrimidin-4-yl)piperidin-4-yl)methanol]",–,–,–,–,98.8%,99.3%,< 10 nM
"OCCC1CCN(c2cc(-c3ccc(Cl)cc3)nc(-c3cccnc3)n2)CC1 [Example 43, 2-(1-(6-(4-chlorophenyl)-2-(pyridin-3-yl)pyrimidin-4-yl)piperidin-4-yl)ethan-1-ol]",–,–,–,–,97.1%,100%,< 10 nM
"CC(=O)N1CCC(Nc2cc(-c3ccc(Cl)cc3)nc(-c3cccnc3)n2)CC1 [Example 146, 1-(4-((6-(4-chlorophenyl)-2-(pyridin-3-yl)pyrimidin-4-yl)amino)piperidin-1-yl)ethan-1-one]",–,–,–,–,41.8%,77.2%,10 to 100 nM
"COCC(=O)NC1CCN(c2cc(-c3ccc(Cl)cc3)nc(-c3cccnc3)n2)CC1 [Example 225, N-(1-(6-(4-chlorophenyl)-2-(pyridin-3-yl)pyrimidin-4-yl)piperidin-4-yl)-2-methoxyacetamide]",< 5.00,< 4.52,–,–,–,–,< 10 nM
"COc1ccc(-c2cc(N3CCC(CO)CC3)nc(-c3cccnc3)n2)cc1 [Example 228, (1-(6-(4-methoxyphenyl)-2-(pyridin-3-yl)pyrimidin-4-yl)piperidin-4-yl)methanol]",–,–,10 to 100 nM,–,107%,101%,–
"Cc1ccc(-c2cc(N3CCC(CO)CC3)nc(-c3cccnc3)n2)cc1 [Example 229, (1-(2-(pyridin-3-yl)-6-(p-tolyl)pyrimidin-4-yl)piperidin-4-yl)methanol]",< 5.00,< 4.52,10 to 100 nM,–,108%,101%,–
"OCC1CCN(c2cc(-c3ccc(Cl)c(F)c3)nc(-c3cccnc3)n2)CC1 [Example 246, (1-(6-(4-chloro-3-fluorophenyl)-2-(pyridin-3-yl)pyrimidin-4-yl)piperidin-4-yl)methanol]",< 5.00,< 4.52,< 10 nM,–,–,–,–
"OC[C@H]1CCN(c2cc(-c3ccc(C(F)(F)F)cc3)nc(-c3cccnc3)n2)C[C@@H]1O [Example 260, (3R,4R)-4-(hydroxymethyl)-1-(2-(pyridin-3-yl)-6-(4-(trifluoromethyl)phenyl)pyrimidin-4-yl)piperidin-3-ol]",< 5.00,< 4.52,< 10 nM,–,–,–,–
"OC[C@@H]1CCN(c2cc(-c3ccc(C(F)(F)F)cc3)nc(-c3cccnc3)n2)C[C@H]1O [Example 262, (3S,4S)-4-(hydroxymethyl)-1-(2-(pyridin-3-yl)-6-(4-(trifluoromethyl)phenyl)pyrimidin-4-yl)piperidin-3-ol]",< 5.00,< 4.52,< 10 nM,–,–,–,–
"OCC1CCN(c2cc(-c3ccc(Cl)c(O)c3)nc(-c3cccnc3)n2)CC1 [Example 273, 2-chloro-5-(6-(4-(hydroxymethyl)piperidin-1-yl)-2-(pyridin-3-yl)pyrimidin-4-yl)phenol]",< 5.00,< 4.52,10 to 100 nM,–,–,–,–
"O=S(=O)(C(F)F)N1CCN(c2cc(-c3ccc(Cl)cc3)nc(-c3cccnc3)n2)CC1 [Example 339, 4-(4-chlorophenyl)-6-(4-((difluoromethyl)sulfonyl)piperazin-1-yl)-2-(pyridin-3-yl)pyrimidine]",–,–,10 to 100 nM,–,84.7%,–,–
"O=S(=O)(CCO)N1CCN(c2cc(-c3ccc(C(F)(F)F)cc3)nc(-c3cccnc3)n2)CC1 [Example 349, 2-((4-(2-(pyridin-3-yl)-6-(4-(trifluoromethyl)phenyl)pyrimidin-4-yl)piperazin-1-yl)sulfonyl)ethan-1-ol]",–,–,< 10 nM,–,97.6%,–,–
